# From the kinase profiling compilation of Christmann-Franck et al. (2016)
# Assays:
# Test in all cases: radiometric filter-binding kinase assay, Kinase HotSpot
# Settings in all cases: compound 0.5 µM; ATP 10 µM
# ITK (human) = ITK (human) (UniProt Q08881)
# CSNK2A2 (human) = CSNK2A2 (human) (UniProt P19784)
# RPS6KA4 KD2 (human) = RPS6KA4 KD2 (human) (UniProt O75676)
# MAP4K5 (human) = MAP4K5 (human) (UniProt Q9Y4K4)
# BLK (human) = BLK (human) (UniProt P51451)
# BMX (human) = BMX (human) (UniProt P51813)
# CDK2 CCNE1 (human) = CDK2 CCNE1 (human) (UniProt P24941+P24864)
# Sequence of CDK2 CCNE1 (human) (P24864 whole entry, looked up, other chains not shown): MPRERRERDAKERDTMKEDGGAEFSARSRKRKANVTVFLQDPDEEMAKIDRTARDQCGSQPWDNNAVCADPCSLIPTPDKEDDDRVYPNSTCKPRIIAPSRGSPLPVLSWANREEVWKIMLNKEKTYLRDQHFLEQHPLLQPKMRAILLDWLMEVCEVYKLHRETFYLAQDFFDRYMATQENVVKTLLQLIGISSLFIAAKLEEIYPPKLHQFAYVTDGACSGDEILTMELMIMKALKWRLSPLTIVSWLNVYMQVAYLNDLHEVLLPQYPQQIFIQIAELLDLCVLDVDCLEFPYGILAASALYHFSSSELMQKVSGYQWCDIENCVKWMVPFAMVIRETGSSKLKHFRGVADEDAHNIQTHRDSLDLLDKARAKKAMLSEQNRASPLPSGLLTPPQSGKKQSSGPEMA
# SRPK2 (human) = SRPK2 (human) (UniProt P78362)
# DYRK3 (human) = DYRK3 (human) (UniProt O43781)
# Sequence of DYRK3 (human) (O43781 whole entry, looked up): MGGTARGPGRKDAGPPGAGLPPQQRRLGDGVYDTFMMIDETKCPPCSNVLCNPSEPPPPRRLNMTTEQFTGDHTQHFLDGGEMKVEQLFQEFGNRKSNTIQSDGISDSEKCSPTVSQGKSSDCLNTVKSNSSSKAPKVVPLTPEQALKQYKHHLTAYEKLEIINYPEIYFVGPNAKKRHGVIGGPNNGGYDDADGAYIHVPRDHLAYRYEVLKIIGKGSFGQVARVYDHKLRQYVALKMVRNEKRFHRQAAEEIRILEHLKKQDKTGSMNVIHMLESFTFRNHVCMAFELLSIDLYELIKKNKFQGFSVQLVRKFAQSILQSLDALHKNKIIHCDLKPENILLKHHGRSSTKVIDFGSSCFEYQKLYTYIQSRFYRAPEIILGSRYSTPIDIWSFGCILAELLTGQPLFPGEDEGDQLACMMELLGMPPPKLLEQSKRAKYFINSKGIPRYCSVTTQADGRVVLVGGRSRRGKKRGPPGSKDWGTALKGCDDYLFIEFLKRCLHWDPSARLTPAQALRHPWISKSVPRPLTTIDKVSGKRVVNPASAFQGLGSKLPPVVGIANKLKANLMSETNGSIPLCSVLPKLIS
# FGFR1 (human) = FGFR1 (human) (UniProt P11362)
# [1] = test system: SGK1 (human), O00141 [S422D]
# TXK (human) = TXK (human) (UniProt P42681)
# AURKC (human) = AURKC (human) (UniProt Q9UQB9)
# NTRK2 (human) = NTRK2 (human) (UniProt Q16620)
# CSNK2A1 (human) = CSNK2A1 (human) (UniProt P68400)
# PRKACA (human) = PRKACA (human) (UniProt P17612)
# MARK1 (human) = MARK1 (human) (UniProt Q9P0L2)
# EPHA2 (human) = EPHA2 (human) (UniProt P29317)
# CSNK1G3 (human) = CSNK1G3 (human) (UniProt Q9Y6M4)
# Sequence of CSNK1G3 (human) (Q9Y6M4 whole entry, looked up): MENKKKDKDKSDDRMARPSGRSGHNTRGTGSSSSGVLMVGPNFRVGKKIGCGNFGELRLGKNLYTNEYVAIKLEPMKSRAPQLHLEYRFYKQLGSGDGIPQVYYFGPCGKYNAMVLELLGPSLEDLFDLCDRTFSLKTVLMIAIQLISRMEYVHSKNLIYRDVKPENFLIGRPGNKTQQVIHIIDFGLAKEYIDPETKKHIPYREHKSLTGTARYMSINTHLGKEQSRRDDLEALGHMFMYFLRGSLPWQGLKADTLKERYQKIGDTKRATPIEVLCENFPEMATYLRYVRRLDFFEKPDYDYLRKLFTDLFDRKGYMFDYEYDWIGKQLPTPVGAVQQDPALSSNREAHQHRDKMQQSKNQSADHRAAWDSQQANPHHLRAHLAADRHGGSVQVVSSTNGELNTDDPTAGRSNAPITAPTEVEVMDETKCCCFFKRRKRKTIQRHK
# DMPK (human) = DMPK (human) (UniProt Q09013)
# Sequence of DMPK (human) (Q09013 whole entry, looked up): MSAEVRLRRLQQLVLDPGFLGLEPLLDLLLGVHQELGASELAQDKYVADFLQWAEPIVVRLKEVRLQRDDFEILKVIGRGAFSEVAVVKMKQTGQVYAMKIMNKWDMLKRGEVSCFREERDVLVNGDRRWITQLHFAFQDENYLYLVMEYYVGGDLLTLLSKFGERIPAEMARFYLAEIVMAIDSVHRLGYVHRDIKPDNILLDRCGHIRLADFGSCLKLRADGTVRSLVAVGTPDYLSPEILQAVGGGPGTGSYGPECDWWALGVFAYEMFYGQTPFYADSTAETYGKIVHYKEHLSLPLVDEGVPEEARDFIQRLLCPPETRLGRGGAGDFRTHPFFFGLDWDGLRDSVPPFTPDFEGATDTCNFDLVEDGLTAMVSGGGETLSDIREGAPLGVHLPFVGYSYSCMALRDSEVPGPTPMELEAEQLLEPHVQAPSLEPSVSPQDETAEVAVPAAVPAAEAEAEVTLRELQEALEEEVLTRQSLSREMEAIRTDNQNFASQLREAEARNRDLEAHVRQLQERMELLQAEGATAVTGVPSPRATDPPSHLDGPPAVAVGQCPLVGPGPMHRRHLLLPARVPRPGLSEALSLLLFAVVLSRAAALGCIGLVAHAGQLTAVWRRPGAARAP
# MAP2K1 (human) = MAP2K1 (human) (UniProt Q02750)
# MAP2K2 (human) = MAP2K2 (human) (UniProt P36507)
# Sequence of MAP2K2 (human) (P36507 whole entry, looked up): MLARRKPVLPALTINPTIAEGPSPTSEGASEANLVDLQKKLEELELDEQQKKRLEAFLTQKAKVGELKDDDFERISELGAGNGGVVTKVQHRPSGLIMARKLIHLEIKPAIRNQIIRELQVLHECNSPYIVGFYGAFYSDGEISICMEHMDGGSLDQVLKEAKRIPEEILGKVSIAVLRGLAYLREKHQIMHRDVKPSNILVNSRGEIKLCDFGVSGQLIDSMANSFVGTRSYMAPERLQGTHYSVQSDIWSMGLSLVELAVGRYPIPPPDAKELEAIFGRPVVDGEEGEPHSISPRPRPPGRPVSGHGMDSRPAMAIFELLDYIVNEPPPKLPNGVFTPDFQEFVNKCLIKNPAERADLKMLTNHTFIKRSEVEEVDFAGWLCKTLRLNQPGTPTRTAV
# MAP3K9 (human) = MAP3K9 (human) (UniProt P80192)
# PTK2B (human) = PTK2B (human) (UniProt Q14289)
# GSG2 (human) = GSG2 (human) (UniProt Q8TF76)
# NEK2 (human) = NEK2 (human) (UniProt P51955)
# WNK3 (human) = WNK3 (human) (UniProt Q9BYP7)
# EPHA1 (human) = EPHA1 (human) (UniProt P21709)
# Sequence of EPHA1 (human) (P21709 whole entry, looked up): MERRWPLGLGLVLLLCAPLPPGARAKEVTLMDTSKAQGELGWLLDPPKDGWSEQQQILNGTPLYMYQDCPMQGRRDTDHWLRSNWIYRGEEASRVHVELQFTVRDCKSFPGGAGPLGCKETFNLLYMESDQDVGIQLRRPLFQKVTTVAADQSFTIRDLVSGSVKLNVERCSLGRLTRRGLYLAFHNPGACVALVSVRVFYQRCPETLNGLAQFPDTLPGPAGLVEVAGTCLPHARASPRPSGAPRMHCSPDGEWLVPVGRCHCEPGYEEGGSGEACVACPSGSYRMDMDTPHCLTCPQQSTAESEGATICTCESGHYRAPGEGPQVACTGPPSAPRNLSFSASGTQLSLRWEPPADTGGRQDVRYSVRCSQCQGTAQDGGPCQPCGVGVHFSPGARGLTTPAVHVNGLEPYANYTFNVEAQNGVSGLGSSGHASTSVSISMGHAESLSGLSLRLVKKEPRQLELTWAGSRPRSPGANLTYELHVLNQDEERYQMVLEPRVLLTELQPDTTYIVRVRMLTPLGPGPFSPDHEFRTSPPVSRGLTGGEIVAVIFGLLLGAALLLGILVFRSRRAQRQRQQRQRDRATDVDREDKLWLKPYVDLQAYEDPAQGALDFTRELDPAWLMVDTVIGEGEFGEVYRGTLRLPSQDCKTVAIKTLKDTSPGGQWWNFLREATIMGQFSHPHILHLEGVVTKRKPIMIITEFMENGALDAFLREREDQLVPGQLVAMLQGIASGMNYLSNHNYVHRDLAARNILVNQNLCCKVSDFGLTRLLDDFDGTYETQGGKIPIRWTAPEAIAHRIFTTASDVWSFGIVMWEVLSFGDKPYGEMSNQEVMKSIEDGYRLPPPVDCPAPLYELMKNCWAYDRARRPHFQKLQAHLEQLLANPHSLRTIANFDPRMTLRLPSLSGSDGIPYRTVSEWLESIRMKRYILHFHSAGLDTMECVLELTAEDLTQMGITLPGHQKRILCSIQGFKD
# FLT3 (human) = FLT3 (human) (UniProt P36888)
# INSR (human) = INSR (human) (UniProt P06213)
# CDK1 CCNA2 (human) = CDK1 CCNA2 (human) (UniProt P06493+P20248)
# LIMK1 (human) = LIMK1 (human) (UniProt P53667)
# STK4 (human) = STK4 (human) (UniProt Q13043)
# Sequence of STK4 (human) (Q13043 whole entry, looked up): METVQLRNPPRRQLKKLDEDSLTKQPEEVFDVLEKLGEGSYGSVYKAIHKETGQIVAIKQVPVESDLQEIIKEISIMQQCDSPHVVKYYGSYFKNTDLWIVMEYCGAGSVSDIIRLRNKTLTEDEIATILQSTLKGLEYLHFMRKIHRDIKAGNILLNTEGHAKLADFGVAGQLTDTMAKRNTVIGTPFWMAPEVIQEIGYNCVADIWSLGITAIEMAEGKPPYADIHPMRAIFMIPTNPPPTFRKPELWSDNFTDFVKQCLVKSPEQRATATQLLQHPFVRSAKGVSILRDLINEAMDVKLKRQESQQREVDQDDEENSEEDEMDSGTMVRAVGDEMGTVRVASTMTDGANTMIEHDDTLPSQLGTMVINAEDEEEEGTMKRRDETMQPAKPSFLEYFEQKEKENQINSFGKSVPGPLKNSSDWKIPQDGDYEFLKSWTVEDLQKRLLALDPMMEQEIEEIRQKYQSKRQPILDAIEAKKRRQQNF
# PHKG1 (human) = PHKG1 (human) (UniProt Q16816)
# GSK3A (human) = GSK3A (human) (UniProt P49840)
# RPS6KA6 KD1 KD2 (human) = RPS6KA6 KD1 KD2 (human) (UniProt Q9UK32)
# STK3 (human) = STK3 (human) (UniProt Q13188)
# CDK7 CCNH MNAT1 (human) = CDK7 CCNH MNAT1 (human) (UniProt P50613+P51948+P51946)
# BRSK2 (human) = BRSK2 (human) (UniProt Q8IWQ3)
# NTRK3 (human) = NTRK3 (human) (UniProt Q16288)
# PRKCE (human) = PRKCE (human) (UniProt Q02156)
# MAPK10 (human) = MAPK10 (human) (UniProt P53779)
# Sequence of MAPK10 (human) (P53779 whole entry, looked up): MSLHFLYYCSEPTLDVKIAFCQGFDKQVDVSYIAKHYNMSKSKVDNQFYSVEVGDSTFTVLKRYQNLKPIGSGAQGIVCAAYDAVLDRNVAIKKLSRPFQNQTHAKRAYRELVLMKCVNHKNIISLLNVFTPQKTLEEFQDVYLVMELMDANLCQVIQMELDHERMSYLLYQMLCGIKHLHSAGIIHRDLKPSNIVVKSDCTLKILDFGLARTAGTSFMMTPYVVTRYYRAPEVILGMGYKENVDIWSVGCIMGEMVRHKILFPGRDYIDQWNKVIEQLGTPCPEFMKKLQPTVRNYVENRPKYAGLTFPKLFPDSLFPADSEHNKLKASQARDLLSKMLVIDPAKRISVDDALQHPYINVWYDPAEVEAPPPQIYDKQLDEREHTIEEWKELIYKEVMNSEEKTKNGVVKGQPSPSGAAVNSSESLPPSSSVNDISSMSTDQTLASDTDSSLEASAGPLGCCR
# Sequence of BLK (human) (P51451 whole entry, looked up): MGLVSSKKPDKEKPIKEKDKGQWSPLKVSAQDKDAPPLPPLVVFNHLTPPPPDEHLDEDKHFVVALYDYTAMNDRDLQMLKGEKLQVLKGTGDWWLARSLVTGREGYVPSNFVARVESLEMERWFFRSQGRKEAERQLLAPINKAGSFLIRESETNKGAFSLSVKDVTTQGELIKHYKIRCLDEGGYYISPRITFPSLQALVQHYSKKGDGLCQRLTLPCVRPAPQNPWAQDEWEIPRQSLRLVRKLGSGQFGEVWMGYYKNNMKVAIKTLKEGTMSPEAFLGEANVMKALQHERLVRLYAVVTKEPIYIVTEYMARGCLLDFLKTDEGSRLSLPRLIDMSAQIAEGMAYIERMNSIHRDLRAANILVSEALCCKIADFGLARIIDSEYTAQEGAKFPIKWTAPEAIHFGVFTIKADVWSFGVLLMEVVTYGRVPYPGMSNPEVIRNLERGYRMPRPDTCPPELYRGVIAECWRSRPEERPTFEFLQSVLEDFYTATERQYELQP
smiles,measurement,setting,value
COc1cccc(-c2cc(=O)c3ccccc3o2)c1N,residual activity,ITK (human),96.5%
same,residual activity,CSNK2A2 (human),97.7%
same,residual activity,RPS6KA4 KD2 (human),103%
same,residual activity,MAP4K5 (human),91.1%
same,residual activity,BLK (human),107%
same,residual activity,BMX (human),103%
same,residual activity,CDK2 CCNE1 (human),95.3%
same,residual activity,SRPK2 (human),91.7%
same,residual activity,DYRK3 (human),90.3%
same,residual activity,FGFR1 (human),96.8%
same,residual activity,[1],102%
same,residual activity,TXK (human),94.6%
same,residual activity,AURKC (human),95.3%
same,residual activity,NTRK2 (human),65.4%
same,residual activity,CSNK2A1 (human),94.9%
same,residual activity,PRKACA (human),87.7%
same,residual activity,MARK1 (human),96.9%
same,residual activity,EPHA2 (human),105%
same,residual activity,CSNK1G3 (human),97.7%
same,residual activity,DMPK (human),97.1%
same,residual activity,MAP2K1 (human),69.1%
same,residual activity,MAP2K2 (human),69.2%
same,residual activity,MAP3K9 (human),93.2%
same,residual activity,PTK2B (human),91.2%
same,residual activity,GSG2 (human),95.7%
same,residual activity,NEK2 (human),86.1%
same,residual activity,WNK3 (human),96.3%
same,residual activity,EPHA1 (human),99.7%
same,residual activity,FLT3 (human),96.3%
same,residual activity,INSR (human),106%
same,residual activity,CDK1 CCNA2 (human),83.8%
same,residual activity,LIMK1 (human),96.1%
same,residual activity,STK4 (human),92.1%
same,residual activity,PHKG1 (human),92.9%
same,residual activity,GSK3A (human),97%
same,residual activity,RPS6KA6 KD1 KD2 (human),95.2%
same,residual activity,STK3 (human),97.1%
same,residual activity,CDK7 CCNH MNAT1 (human),99.9%
same,residual activity,BRSK2 (human),98%
same,residual activity,NTRK3 (human),99.3%
same,residual activity,PRKCE (human),82.4%
same,residual activity,MAPK10 (human),85.7%
O=C(O)c1ccc2c3c1cccc3c(=O)n1c3ccccc3nc21,residual activity,ITK (human),97.7%
same,residual activity,CSNK2A2 (human),13.3%
same,residual activity,RPS6KA4 KD2 (human),110%
same,residual activity,MAP4K5 (human),47%
same,residual activity,BLK (human),100%
same,residual activity,BMX (human),96.4%
same,residual activity,CDK2 CCNE1 (human),90.9%
same,residual activity,SRPK2 (human),89.3%
same,residual activity,DYRK3 (human),92.3%
same,residual activity,FGFR1 (human),84.7%
same,residual activity,[1],102%
same,residual activity,TXK (human),102%
same,residual activity,AURKC (human),88%
same,residual activity,NTRK2 (human),98.4%
same,residual activity,CSNK2A1 (human),28.3%
same,residual activity,PRKACA (human),99.4%
same,residual activity,MARK1 (human),79.5%
same,residual activity,EPHA2 (human),102%
same,residual activity,CSNK1G3 (human),96.9%
same,residual activity,DMPK (human),98.9%
same,residual activity,MAP2K1 (human),93.7%
same,residual activity,MAP2K2 (human),105%
same,residual activity,MAP3K9 (human),64.4%
same,residual activity,PTK2B (human),69.2%
same,residual activity,GSG2 (human),90.9%
same,residual activity,NEK2 (human),109%
same,residual activity,WNK3 (human),95.8%
same,residual activity,EPHA1 (human),95.3%
same,residual activity,FLT3 (human),68.9%
same,residual activity,INSR (human),91.5%
same,residual activity,CDK1 CCNA2 (human),78.1%
same,residual activity,LIMK1 (human),92.7%
same,residual activity,STK4 (human),93.3%
same,residual activity,PHKG1 (human),91.5%
same,residual activity,GSK3A (human),87.3%
same,residual activity,RPS6KA6 KD1 KD2 (human),101%
same,residual activity,STK3 (human),97.1%
same,residual activity,CDK7 CCNH MNAT1 (human),92.1%
same,residual activity,BRSK2 (human),90.4%
same,residual activity,NTRK3 (human),67.1%
same,residual activity,PRKCE (human),113%
same,residual activity,MAPK10 (human),108%
O=C(c1ccccc1)c1ccc(N2CCOCC2)cc1O,residual activity,ITK (human),99.5%
same,residual activity,CSNK2A2 (human),96.8%
same,residual activity,RPS6KA4 KD2 (human),105%
same,residual activity,MAP4K5 (human),100%
same,residual activity,BLK (human),102%
same,residual activity,BMX (human),90.4%
same,residual activity,CDK2 CCNE1 (human),99.6%
same,residual activity,SRPK2 (human),102%
same,residual activity,DYRK3 (human),98.9%
same,residual activity,FGFR1 (human),95.9%
same,residual activity,[1],101%
same,residual activity,TXK (human),98.5%
same,residual activity,AURKC (human),102%
same,residual activity,NTRK2 (human),92.7%
same,residual activity,CSNK2A1 (human),91.1%
same,residual activity,PRKACA (human),98.3%
same,residual activity,MARK1 (human),97.6%
same,residual activity,EPHA2 (human),104%
same,residual activity,CSNK1G3 (human),98.8%
same,residual activity,DMPK (human),98.9%
same,residual activity,MAP2K1 (human),98.1%
same,residual activity,MAP2K2 (human),101%
same,residual activity,MAP3K9 (human),112%
same,residual activity,PTK2B (human),102%
same,residual activity,GSG2 (human),98.5%
same,residual activity,NEK2 (human),101%
same,residual activity,WNK3 (human),104%
same,residual activity,EPHA1 (human),89.1%
same,residual activity,FLT3 (human),90.6%
same,residual activity,INSR (human),92.9%
same,residual activity,CDK1 CCNA2 (human),103%
same,residual activity,LIMK1 (human),83.9%
same,residual activity,STK4 (human),103%
same,residual activity,PHKG1 (human),97.4%
same,residual activity,GSK3A (human),102%
same,residual activity,RPS6KA6 KD1 KD2 (human),101%
same,residual activity,STK3 (human),100%
same,residual activity,CDK7 CCNH MNAT1 (human),106%
same,residual activity,BRSK2 (human),95.5%
same,residual activity,NTRK3 (human),93.7%
same,residual activity,PRKCE (human),92.3%
same,residual activity,MAPK10 (human),75.3%
